In the supplement of paper PMC8837787:
Counter-ions that a name gives are not always drawn.

test system: Saccharomyces cerevisiae ABC16-Green Monster; conditions: 18 h; 30 °C; YPD
Procedure: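 Growth inhibition of the drug-sensitive S. cerevisiae ABC16-Green Monster strain (16 ABC transporters deleted) in YPD at 30 °C for 18 h. […] dilution series […] in biological replicates; IC50 from OD600 (18 h minus 0 h) fitted by variable-slope nonlinear regression in GraphPad Prism. Library compounds were first screened at 150 µM, and only those with at least 70% inhibition went to dose-response; the rest are marked inactive.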

Point of comparison: `Cc1ccc2c(Br)cc(Br)c(OC(=O)c3ccccc3)c2n1` [Broxaldine], IC50 growth inhibition 2.24 µM. Against it:
- CCCOC(=O)C1=C(C)NC2=C(C(=O)CC(c3ccc(OC)c(OC)c3)C2)C1c1ccc(Cl)cc1Cl (stereo unspecified) [GNF-Pf-5672] — 2.3-fold higher, 5.08 µM
- CN1CC(C(=O)NC2(C)OC3(O)C4CCCN4C(=O)C(Cc4ccccc4)N3C2=O)CC2c3cccc4[nH]cc(c34)CC21 (stereo unspecified) [Dihydroergotamine] — higher, > 75 µM
- CC1N(C)c2ccc(/C=C/c3cc[n+](C)cc3)cc2C1(C)C (stereo unspecified) — 25-fold higher, 55.2 µM
- CC(c1ncncc1F)C(O)(Cn1cncn1)c1ccc(F)cc1F (stereo unspecified) [Voriconazole] — 12-fold lower, 0.18 µM
- N#CC(c1ccc(Cl)cc1)c1c(Cl)cc(-n2ncc(=O)[nH]c2=O)cc1Cl (stereo unspecified) [Diclazuril] — 31-fold higher, 68.5 µM
- Cc1ccc2c(c1C)NC(=O)C21NN=C(c2ccccc2)S1 (stereo unspecified) — 4.6-fold higher, 10.2 µM
- CN(C)c1ccc(C(O)(c2ccc(N(C)C)cc2)c2ccc(N(C)C)cc2)cc1 — 7.1-fold lower, 0.317 µM
- COc1ccc(C2CC(=O)C3=C(C2)NC(C)=C(C(=O)OC2CCCC2)C3c2ccc([N+](=O)[O-])cc2)cc1OC (stereo unspecified) [GNF-Pf-5639] — 4.4-fold higher, 9.8 µM
- COC1CC2CCC(C)C(O)(O2)C(=O)C(=O)N2CCCCC2C(=O)OC(C(C)CC2CCC(O)C(OC)C2)CC(=O)C(C)C=C(C)C(O)C(OC)C(=O)C(C)CC(C)C=CC=CC=C1C (stereo unspecified) [Rapamycin] — 3.1-fold lower, 0.727 µM
- Cc1nc2ncnn2c(N2CCc3ccccc3C2)c1Cl — 38-fold higher, 84.8 µM
- COC1=C2CC(C)CC(OC)C(O)C(C)C=C(C)C(OC(N)=O)C(OC)C=CC=C(C)C(=O)NC(=CC1=O)C2=O (stereo unspecified) [Geldanamycin] — higher, > 75 µM
- c1ccc(-c2cn3nc(NCc4ccccc4CN4CCOCC4)sc3n2)cc1 — 47-fold higher, 106 µM
- COc1ccc(Oc2ccc([C@@H](C)N(C)c3ncc4c(N)nc(N)nc4n3)cc2)cc1 — 14-fold higher, 30.5 µM
- Cc1cccc2sc(C(=O)NCc3cccc(NS(N)(=O)=O)c3)c(Cl)c12 — 32-fold higher, 70.6 µM
- CCC1C=CC=CCC(C)C(O)C(C)(O)C(=O)C(C)C(O)C(C)C(=O)C(C)C(O)C(C)C=CC(=O)OC2C(C)C(CC1)OC1(CCC(C)C(CC(C)O)O1)C2C (stereo unspecified) [Oligomycin] — higher, > 75 µM
- CCN(CC)S(=O)(=O)c1ccc(C(=O)Nc2cc(C)nn2-c2nc(C)c(C)c(=O)[nH]2)cc1 — 31-fold higher, 68.4 µM
- COc1ccc2cc(CN(C)CC(=O)Nc3sccc3C(N)=O)ccc2c1 — 27-fold higher, 60.6 µM
- CC(C)c1cc(NCc2ccccn2)n2ncc(-c3ccccc3)c2n1 — 5-fold lower, 0.45 µM
- O=C(Nc1ccccc1)c1ccc(-c2cc3ccncc3cc2OC2CCNCC2)s1 — 20-fold higher, 44.8 µM
- NC(=O)N1CCC(CC(=O)N2CCC([C@H]3c4ncc(Br)cc4CCc4cc(Cl)cc(Br)c43)CC2)CC1 [Lonarfanib] — 9.1-fold higher, 20.4 µM
- CC(C)Oc1cc(Nc2nc(N[C@@H](C)c3ccc(F)cc3)c(C#N)cc2F)[nH]n1 [AZD-6918] — higher, > 75 µM
- COC(=O)Nc1nc2ccc(C(=O)c3ccccc3)cc2[nH]1 [Mebendazole] — 2.4-fold higher, 5.42 µM
- O=C1N=c2ccccc2=C1NNC(=S)N1CCOCC1 — 7.3-fold higher, 16.4 µM
- C[C@@H]1COCCN1c1cc(C2(S(C)(=O)=O)CC2)nc(-c2cccc3[nH]ccc23)n1 [AZ-20] — higher, > 75 µM
- C[C@H](c1ccc2c(c1)CCCC2)N(C)c1ncc2c(N)nc(N)nc2n1 — 14-fold higher, 30.5 µM
- CCCC(=O)NC(c1ccc(Cl)cc1)c1ccc2cccnc2c1O (stereo unspecified) [GNF-Pf-3257] — 25-fold higher, 55.9 µM
- Nc1ncnc2c1ncn2CC(O)C(O)C(=O)O (stereo unspecified) [Eritadenine] — higher, > 75 µM
- CCn1nc(-c2ccc(C(=O)OC)cc2)nc2c(=O)n(C)c(=O)nc1-2 — 3.7-fold lower, 0.601 µM
- O=C1C2=C(Nc3ccccc3SC2c2ccc(OCc3ccccc3)cc2)c2ccccc21 (stereo unspecified) [GNF-PF-5338] — higher, > 150 µM
- Clc1ccccc1-c1nc([P+](c2ccccc2)(c2ccccc2)c2ccccc2)c(N2CCOCC2)o1 [GNF-PF-2863] — 3.8-fold higher, 8.55 µM
- CC(=O)NCC1CN(c2ccc(N3CCSCC3)c(F)c2)C(=O)O1 (stereo unspecified) [Sutezolid] — higher, > 75 µM
- c1ccc(CNc2nc(Nc3ccccc3)nc3ccccc23)cc1 — 3.8-fold higher, 8.62 µM
- CCC(=C(CC)c1ccc(O)cc1)c1ccc(O)cc1 [Diethylstilbestrol] — 2.6-fold higher, 5.86 µM
- CC(=O)c1ccc(-c2ccc(C(=O)N3CCCc4ccccc43)o2)cc1 — 23-fold higher, 52.4 µM
- CCC(C)(C)c1ccc(OCCOCC[n+]2ccccc2)c(C(C)(C)CC)c1.[Cl-] [GNF-Pf-1618] — within 1.5-fold, 2.19 µM
- CC(=O)OCC1OC([S-])C(OC(C)=O)C(OC(C)=O)C1OC(C)=O.CCP(CC)CC (stereo unspecified) [Auranofin] — 12-fold higher, 27.4 µM
- Cc1cc(Nc2cccc(F)c2)nc(NCc2ccccc2)n1 — 9.8-fold higher, 21.9 µM
- Fc1ccc2[nH]c3c(N4CCN(C(c5ccccc5)c5ccccc5)CC4)ncnc3c2c1 [GNF-Pf-2775] — 3.1-fold lower, 0.723 µM
- c1ccc(CSc2scnc2[P+](c2ccccc2)(c2ccccc2)c2ccccc2)cc1 [GNF-Pf-238] — 1.8-fold higher, 4.06 µM
- COC1C(OC(N)=O)C(O)C(Oc2ccc3c(O)c(NC(=O)c4ccc(O)c(CC=C(C)C)c4)c(=O)oc3c2C)OC1(C)C (stereo unspecified) [Novobiocin] — higher, > 75 µM
- CC(=O)OC1c2nc(cs2)C(=O)OC(CCCC(C)(Cl)Cl)C(C)C(=O)OC(C(C)(C)O)c2nc(cs2)C(=O)OC1(C)C (stereo unspecified) [Hectochlorin] — 9-fold lower, 0.25 µM
- C=CCn1c(C)cc(C(=O)CSc2nc3ccccc3o2)c1C — 5-fold higher, 11.2 µM
- Nc1nc(F)nc2c1ncn2C1OC(CO)C(O)C1O (stereo unspecified) [Fludarabine] — higher, > 75 µM
- O=C(Nc1cccc(C(F)(F)F)c1)Nc1ncc([N+](=O)[O-])s1 — 23-fold higher, 52.4 µM
- C=C1CCC(O)CC1=CC=C1CCCC2(C)C1CCC2C(C)CCCC(C)(C)O (stereo unspecified) [Calcifediol] — higher, > 150 µM
- Cc1cc(C(=O)Cn2cnc3ccccc3c2=O)c(C)n1-c1ccccc1 — 27-fold higher, 61 µM
- COCCNc1cc(C(C)C)nc2c(-c3ccccc3)cnn12 — 23-fold higher, 52.6 µM
- C[C@H]1CC[C@H](n2c3cnccc3c3cnc(Nc4ccc5c(n4)CCN(C(=O)CO)C5)nc32)CC1 [AMG 925] — higher, > 75 µM
- OCCNc1nc(Oc2ccc(-c3ccccc3)cc2)nc2ccccc12 — 9.7-fold higher, 21.7 µM
- O=C(Nc1nc(-c2ccccn2)cs1)c1cncn1-c1ccccc1 — 12-fold higher, 26.2 µM
- CN(C)CCNc1nc2sc3c(c2c(=O)n1Cc1ccco1)CCCCC3 — 15-fold higher, 32.5 µM
- O=C(Nc1ccc([N+](=O)[O-])cc1Cl)c1cc(Cl)ccc1O [Niclosamide] — within 1.5-fold, 1.53 µM
- CC1=NN(c2nc3ccccc3[nH]2)C(=O)C1Cc1ccccc1 (stereo unspecified) [CBR110] — 1.6-fold higher, 3.48 µM
- Cc1cccc(-n2ncc3c(=O)[nH]c(-n4nc(C)cc4NC(=O)c4cc5ccccc5o4)nc32)c1 — 3.2-fold higher, 7.06 µM
- CCCc1nn(C)c2c(=O)nc(-c3cc(S(=O)(=O)N4CCN(C)CC4)ccc3OCC)[nH]c12 [Sildenafil citrate] — higher, > 75 µM
- COC(=O)c1ccc(C(=O)OC)c(N2C(=O)C=CC2=O)c1 — 30-fold higher, 67.7 µM
- Cl.c1ccc(C2CCCC2NC2=NCCCCCCCCCCC2)cc1 (stereo unspecified) [MDL-12] — 24-fold higher, 54.6 µM
- Oc1c(C(Nc2ccccn2)c2cccc(Cl)c2Cl)ccc2cccnc12 (stereo unspecified) [GNF-Pf-5250] — higher, > 150 µM
- COC1CC2CCC(C)C(O)(O2)C(=O)C(=O)N2CCCCC2C(=O)OC(C(C)CC2CCC(OCCO)C(OC)C2)CC(=O)C(C)C=C(C)C(O)C(OC)C(=O)C(C)CC(C)C=CC=CC=C1C (stereo unspecified) [Everolimus] — 54-fold lower, 0.0415 µM
- COc1ccc(C2Sc3ccccc3N=C3C2=C(O)c2ccccc23)cc1 (stereo unspecified) [GNF-Pf-5129] — 1.8-fold higher, 3.97 µM
- COc1cccc(-n2nnnc2S(C)(=O)=O)c1 — 24-fold higher, 53.8 µM
- CCS(=O)(=O)c1ncc(Cl)c(C(=O)Nc2cc(Cl)cc(Cl)c2)n1 — 3-fold higher, 6.66 µM
- CC1(C)OB(O)c2cc(NC(=O)c3ccc(-n4cccn4)cc3Cl)ccc21 [AN7973] — 6.3-fold lower, 0.355 µM
- Cn1c(N)c(C(=O)CSc2nnc(-c3ccccc3)c(-c3ccccc3)n2)c(=O)n(C)c1=O — 10-fold higher, 22.9 µM
- N#CC(C#N)=NNc1cc(Cl)cc(Cl)c1 — 9.2-fold higher, 20.6 µM
- CCCCc1oc2ccccc2c1C(=O)c1cc(I)c(OCCN(CC)CC)c(I)c1 [Amiodarone] — 2.6-fold higher, 5.72 µM
- Cc1ccc(-c2nc(CN(Cc3ccccn3)C(C)C)cs2)o1 — 5.4-fold higher, 12 µM
- CC1=NN(c2nc3ccccc3s2)C(=O)C1Cc1cccc2ccccc12 (stereo unspecified) — 18-fold higher, 40.7 µM
- C=CCc1c(C)nc2c(-c3ccccc3)cnn2c1N1CCN(CCO)CC1 — 28-fold higher, 62.8 µM
- OCCc1ccc(Nc2nccc(-c3nnc4ccccn34)n2)cc1 — 20-fold higher, 43.9 µM
- COc1ccccc1N=C1C(=O)c2ccccc2C(O)=C1N1CCCCC1 — 3.5-fold higher, 7.84 µM
- COCC1OC(=O)c2coc3c2C1(C)C1=C(C3=O)C2CCC(=O)C2(C)CC1OC(C)=O (stereo unspecified) [Wortmannin] — 12-fold higher, 27.7 µM
- CN(C)c1oc(-c2ccc(Cl)cc2Cl)nc1[P+](c1ccccc1)(c1ccccc1)c1ccccc1 [GNF-Pf-2545] — 2-fold higher, 4.53 µM
- CC(Oc1ccc(Cl)cc1Cl)c1nc(-c2ccc(NC(=O)c3cccs3)cc2)no1 (stereo unspecified) [GNF-Pf-2823] — 1.7-fold higher, 3.9 µM
- CCS(=O)(=O)c1ncc(Cl)c(C(=O)Nc2ccc(C(=O)OC)cc2)n1 — 7.8-fold higher, 17.4 µM
